Measurements published in EP4803080A1, “METHOD FOR TREATING LEUKEMIA” (Shenzhen TargetRx Co., Ltd., priority 2023, dated 2025).

Assays:
[1] = test system: CML-CP with T315I mutation; assay: Phase I dose escalation and dose expansion clinical trial: efficacy in CML-CP subjects with T315I mutation; format: in vivo, humans
From the text: This study is a single-arm, open-label, dose-escalation and dose-expansion Phase I clinical trial.
The dose-escalation phase of this trial consists of about 8 dose groups, with oral administration under fasting conditions. Subjects in all dose groups will receive a single dose on Day 1 (D1), followed by pharmacokinetic (PK) and tolerability observations. […] After entering the multiple-dose period, subjects in the first dose group will initially receive twice-daily (BID) dosing (if PK data from the single-dose period are available, the dosing frequency during the multiple-dose period may be adjusted based on the PK data). The dosing frequency for subjects in subsequent dose groups after entering the multiple-dose period will be determined based on available PK and tolerability data. Throughout the trial, dosing frequency for all subjects may be adjusted based on continuously updated safety and PK data.
A continuous reassessment method (CRM) based on the principle of the escalation with overdose control (EWOC) design will be used to recommend the next specific dose for each dose escalation, thereby completing dose escalation and determining the maximum tolerated dose (MTD). If both the investigator and sponsor believe that higher dose groups may offer better efficacy and manageable safety, the EWOC-based CRM method may be used to explore higher doses. All enrolled subjects will receive long-term treatment with the test drug and undergo evaluations for safety, tolerability, and preliminary efficacy.
After obtaining certain research data from the dose-escalation phase, the investigator may comprehensively consider safety, efficacy, and other information to decide whether to enroll additional subjects at the MTD and/or lower dose levels to determine the recommended Phase II dose (RP2D). Two to four suitable dosing regimens will be selected for expansion in the target population (including subjects enrolled at the target dose levels during the escalation phase).
A total of 8 dose groups were established: 10 mg bid, 20 mg bid, 40 mg bid, 80 mg bid, 40 mg qd, 80 mg qd, 160 mg qd, and 240 mg qd.
The dose expansion phase was conducted in the following 3 cohorts: • Cohort 1: Subjects with chronic phase (CP) chronic myeloid leukemia (CML) who had previously received at least ≥2 different TKIs and were T315I-negative. A total of 3 dose groups were established: 40 mg qd, 80 mg qd, and 240 mg qd; • Cohort 2: Subjects with chronic phase (CP) chronic myeloid leukemia (CML) who have previously received ≥1 TKI and were T315I-positive. A total of 2 dose groups were established: 40 mg qd and 240 mg qd; • Cohort 3: Subjects with accelerated phase (AP) chronic myeloid leukemia (CML) who have previously received ≥1 TKI, regardless of T315I positivity. A total of 1 dose group was established: 240 mg qd.

[2] = Phase I clinical trial: pharmacokinetics; format: in vivo, humans; settings: CML patients, oral
From the text: • 1) To preliminarily evaluate the pharmacokinetic characteristics of Compound A after multiple oral administrations; • 2) To preliminarily evaluate the antitumor effects of Compound A.
This study is a single-arm, open-label, dose-escalation and dose-expansion Phase I clinical trial. The trial plans to enroll patients with chronic myeloid leukemia (CML) who have developed resistance or intolerance after prior treatment with BCR-ABL1 tyrosine kinase inhibitor(s) (TKIs).
The dose-escalation phase of this trial consists of about 8 dose groups, with oral administration under fasting conditions. Subjects in all dose groups will receive a single dose on Day 1 (D1), followed by pharmacokinetic (PK) and tolerability observations. If no drug-related adverse events of Grade 3 or higher occur during the single-dose period, the subject will enter the multiple-dose period (i.e., the treatment period) after 3-5 days (for the first dose group, the multiple-dose period begins 5 days after the first dose [i.e., starting on Day 6]; for subsequent dose groups, the interval will be determined based on available tolerability and PK data). […] The dosing frequency for subjects in subsequent dose groups after entering the multiple-dose period will be determined based on available PK and tolerability data. […]

[3] = CML-CP subjects with T315I mutation, all doses, 16 evaluable, as of August 24, 2023
[4] = CML-CP subjects with T315I mutation, as of August 24, 2023
[5] = CML-CP subjects with T315I mutation, as of June 2, 2024
[6] = CML-CP with T315I mutation, 10 mg BID, 0 evaluable subjects, as of August 24, 2023
[7] = CML-CP with T315I mutation, 20 mg BID, 1 evaluable subject, as of August 24, 2023
[8] = CML-CP with T315I mutation, 40 mg BID, 1 evaluable subject, as of August 24, 2023
[9] = CML-CP with T315I mutation, 40 mg QD, 2 evaluable subjects, as of August 24, 2023
[10] = CML-CP with T315I mutation, 40 mg/day Total, 3 evaluable subjects, as of August 24, 2023
[11] = CML-CP with T315I mutation, 80 mg BID, 1 evaluable subject, as of August 24, 2023
[12] = CML-CP with T315I mutation, 80 mg QD, 0 evaluable subjects, as of August 24, 2023
[13] = CML-CP with T315I mutation, 80 mg/day Total, 1 evaluable subject, as of August 24, 2023
[14] = CML-CP with T315I mutation, 160 mg QD, 1 evaluable subject, as of August 24, 2023
[15] = CML-CP with T315I mutation, 160 mg/day Total, 2 evaluable subjects, as of August 24, 2023
[16] = CML-CP with T315I mutation, 240 mg QD, 10 evaluable subjects, as of August 24, 2023
[17] = CML-CP with T315I mutation, Total, all dose groups, 16 evaluable subjects, as of August 24, 2023

Compound `O=C(Nc1ccc(OC(F)(F)Cl)cc1)c1cnc(N2CC[C@@H](F)C2)c(-c2cnccn2)c1` [Compound A, (R)-N-(4-(chlorodifluoromethoxy)phenyl)-6-(3-fluoropyrrolidin-1-yl)-5-(pyrazin-2-yl)nicotinamide] has a CHR ([1]; CML-CP subjects with T315I mutation, all doses, 13 evaluable, as of August 24, 2023) of 92.3%, a CCyR [1, 3] of 56.3% and an MCyR [1, 3] of 62.5%. For the same compound, the MMR ([1]; CML-CP subjects with T315I mutation, all doses, 17 evaluable, as of August 24, 2023) was 35.3%, the “CHR within 3 treatment cycles” value ([1]; CML-CP subjects with T315I mutation, 20 evaluable, as of June 2, 2024) was 80% and the “median time to CCyR” value [1, 4] was 2.83 (2.76, 2.92) months. The “median time to MCyR” value [1, 4] was 2.81 (2.76, 2.83) months, the “median time to MMR” value [1, 4] was 2.81 (2.76, 3.68) months and the “18-month cumulative incidence of CCyR” value [1, 5] was 69%. For the same compound, the “18-month cumulative incidence of MCyR” value [1, 5] was 76%, the “18-month cumulative incidence of MMR” value [1, 5] was 50% and the CCyR [1, 6] was 0 n (%). The CHR [1, 6] was 0 n (%), the MCyR [1, 6] was 0 n (%) and the MMR [1, 6] was 0 n (%). The CCyR [1, 7] was 1 (100) n (%), the CHR [1, 7] was 1 (100) n (%) and the MCyR [1, 7] was 1 (100) n (%). The MMR [1, 7] was 0 n (%), the CCyR [1, 8] was 0 n (%) and the CHR [1, 8] was 1 (100) n (%). For the same compound, the MCyR [1, 8] was 0 n (%), the MMR [1, 8] was 0 n (%) and the CHR ([1]; CML-CP with T315I mutation, 40 mg QD, 0 evaluable subjects, as of August 24, 2023) was 0 n (%). For the same compound, the CCyR [1, 9] was 2 (100) n (%), the MCyR [1, 9] was 2 (100) n (%) and the MMR ([1]; CML-CP with T315I mutation, 40 mg QD, 3 evaluable subjects, as of August 24, 2023) was 2 (66.7) n (%). For the same compound, the CHR ([1]; CML-CP with T315I mutation, 40 mg/day Total, 1 evaluable subject, as of August 24, 2023) was 1 (100) n (%), the CCyR [1, 10] was 3 (100) n (%) and the MCyR [1, 10] was 3 (100) n (%). For the same compound, the MMR ([1]; CML-CP with T315I mutation, 40 mg/day Total, 4 evaluable subjects, as of August 24, 2023) was 2 (50.0) n (%), the CHR ([1]; CML-CP with T315I mutation, 80 mg BID, 0 evaluable subjects, as of August 24, 2023) was 0 n (%) and the CCyR [1, 11] was 1 (100) n (%). For the same compound, the MCyR [1, 11] was 1 (100) n (%), the MMR [1, 11] was 1 (100) n (%) and the CCyR [1, 12] was 0 n (%). For the same compound, the CHR [1, 12] was 0 n (%), the MCyR [1, 12] was 0 n (%) and the MMR [1, 12] was 0 n (%). The CCyR [1, 13] was 0 n (%), the CHR [1, 13] was 1 (100) n (%) and the MCyR [1, 13] was 0 n (%). The MMR [1, 13] was 0 n (%), the CCyR [1, 14] was 1 (100) n (%) and the CHR [1, 14] was 1 (100) n (%). For the same compound, the MCyR [1, 14] was 1 (100) n (%), the MMR [1, 14] was 1 (100) n (%) and the CHR ([1]; CML-CP with T315I mutation, 160 mg/day Total, 1 evaluable subject, as of August 24, 2023) was 1 (100) n (%). The CCyR [1, 15] was 2 (100) n (%), the MCyR [1, 15] was 2 (100) n (%) and the MMR [1, 15] was 2 (100) n (%). The CCyR [1, 16] was 4 (40.0) n (%), the CHR [1, 16] was 9 (90.0) n (%) and the MCyR [1, 16] was 5 (50.0) n (%). The MMR [1, 16] was 2 (20.0) n (%), the CHR ([1]; CML-CP with T315I mutation, Total, all dose groups, 13 evaluable subjects, as of August 24, 2023) was 12 (92.3) n (%) and the CCyR [1, 17] was 9 (56.3) n (%). For the same compound, the MCyR [1, 17] was 10 (62.5) n (%), the MMR ([1]; CML-CP with T315I mutation, Total, all dose groups, 17 evaluable subjects, as of August 24, 2023) was 6 (35.3) n (%) and the exposure versus dose [2] was “dose-proportional”. It also gave a half-life ([2]; human, in vivo, read-out: terminal half-life) greater than 100 h.
